Measurements taken from US12157713B2, “Conjugated oligoelectrolytes as antimicrobial agents” (Nanyang Technological University, priority 2018, dated 2024).

Columns and labels:
[1] = DSC of treated unilamellar vesicles; settings: POPE:POPG 85:15 vesicles
Method: POPE (1-palmitoyl-2-oleoyl-phosphatidylethanolamine) and POPG (1-palmitoyl-2-oleoyl-phosphatidylglycerol) were purchased as chloroform stocks from Avanti Polar Lipids. POPE and POPG were mixed to a molar ratio of 85:15 and dried under a gentle stream of nitrogen. The lipid cake obtained was further desiccated for overnight to obtain a thin lipid film. Rehydration of the dried film was carried out by adding 25 mM Tris, 150 mM NaCl, pH 7.5, to a concentration of 4.3 mg/mL, followed by incubation at 45° C. for 2 hrs, under constant stirring using a magnetic stirrer at around 300 rpm. To prepare the unilamellar vesicles, the vesicles suspension was repeatedly extruded through a polycarbonate membrane of 100 nm pores (21 times) at 45° C. The extruded vesicle sample was kept at 4° C. till further use. The vesicle solution was diluted to 0.86 mg/mL with buffer (25 mM Tris, 150 mM NaCl, pH 7.5) or the COE solution (25 mM Tris, 150 mM NaCl, pH 7.5) before the DSC measurements.
Unilamellar vesicles composed of 1-palmitoyl-2-oleoylphosphatidylethanolamine (POPE) and 1-palmitoyl-2-oleoylphosphatidylglycero (POPG) in a molar ratio of 85:15 were prepared in accordance to the general method “Preparation of Small Unilamellar Vesicles” and were used as a generic bacterial model membrane (G. J. Gabriel, et al., Mater. Sci. Eng. R 2007, 57, 28-64).
When subjected to DSC, the main gel-to-liquid-crystal transition peaks broadened after incubation with 8 μg mL^−1 of COE-D8 (FIG. 7a). For COE-D6, a higher concentration (16 μg mL^−1) was needed to change the initial trace (FIG. 7b). […] The perturbation to the cooperative transition of the lamellar phase reflects varying degrees of membrane intercalation. This observation correlates well with solubility and the alkyl chain length (Table 1a). Due to its lower aqueous solubility, COE-D8 is likely to partition more readily into hydrophobic domains of the lipid bilayer, leading to the weakened phase transition observed in the vesicles.

[2] = test system: Enterococcus faecalis OG1RF; assay: MIC by broth microdilution against E. faecalis OG1RF; assay type: cell-based; settings: BHI
Method: (§1) The respective minimum inhibition concentration (MIC) of each COE molecule was determined using a broth microdilution method. Briefly, COEs were diluted via a 2-fold dilution series in 100 μL of either Muller Hinton Broth (MHB) for E. coli and S. aureus or Brain Heart Infusion Broth (BHI) for E. faecalis in a 96-well plate to achieve the desired final concentration. Subsequently, each well was inoculated with 100 μL of 1×10^6 colony forming units (CFU) mL^−1 of the respective microorganism in MHB for E. coli or BHI for E. faecalis to achieve an inoculum density of 5×10^5 CFU mL^−1. The plates were then incubated at 37° C. with shaking (200 rpm) for 18 hrs. […] The results were obtained in triplicate.
The MIC values of COE-D4, COE-D6 and COE-D8 against the reference strain E. coli K12, pathogenic E. coli UT189, and the Gram positive pathogen Enterococcus faecalis OG1RF were determined using a broth microdilution method as described in the general method above. The MICs for E. coli K12 were determined to be 128, 16, and 4 μg mL^−1 for COE-D4, COE-D6, and COE-D8, respectively (FIG. 5a). […] This is not surprising as these two organisms differ in the capsular polysaccharides that they expressed, which are known to hinder the uptake of antimicrobials and mitigate their potency (M. A. Campos, et al., Infect. Immun. 2004, 72, 7107-7114). […]

[3] = test system: Methicillin-resistant Staphylococcus aureus (MRSA BAA-40); assay: MIC against MRSA BAA-40; assay type: cell-based; settings: for MIC in comparison with vancomycin: all three strains: E. coli K12, S. aureus 25923, MRSA BAA-40 (FIG. 5b)
Method: as §1
The antimicrobial effects of COE-D62N and COE-D82N were also tested on the Gram-positive Staphylococcus aureus 25923 and Methicillin-resistant Staphylococcus aureus(MRSA BAA-40), in comparison with vancomycin (FIG. 5b).

MRSA BAA-40 [4] = assay: Time-kill assay; assay type: cell-based, Staphylococcus aureus; settings: 32 μg/mL; for Reduction of viability of MRSA BAA-40 compared with vancomycin: FIG. 11a
Method: A stationary-phase culture of MRSA BAA-40 was diluted to 2×10^8 CFU/mL in fresh MHB. 500 μL of this suspension was then mixed with another 500 μL of MHB containing twice the desired final concentrations of COEs and vancomycin (32 μg/mL). The tube was incubated at 37° C. with 200 rpm shaking. Aliquots were removed at various time points and were serially diluted in PBS, and plated on MHB plates to enumerate CFU/mL.

MRSA BAA-40 [5] = assay: Resistance evolution experiment (serial passage); assay type: cell-based, Staphylococcus aureus; settings: for MIC on MRSA BAA-40 during serial passage: from the 5th day onwards, 17 days; for Tendency to cause resistance in the bacteria: serial passage for 17 days
Method: To evaluate the propensity of COE to induce resistance, a serial passage of MRSA BAA-40 in MHB medium containing 100-fold diluted stationary-phase culture with increasing concentrations of COE was performed.

[6] = test system: Staphylococcus aureus on reconstituted human epidermis (RHE); assay: Reconstituted human epidermis skin model inoculated with S. aureus; assay type: cell-based; settings: 10× the MIC of S. aureus
Method: Reconstituted human epidermis (RHE) was cultured in multiwell plates on polymer membrane inserts (0.5 cm^2 surface area) using immortalized human keratinocytes (250,000 NTERTS) in CnT prime media (from CellnTec) for 48 hours after which they were transferred to CnT 3D prime media for 24 hours before air lifting. The media was changed every 48 hours thereafter and RHE was grown for at least 7 days. After the stratified layers of the RHE were formed, a standardised inoculum of Staphylococcus aureus was added to RHEs (with the exception of the negative control), followed by the addition of 10× the MIC of S. aureaus of antimicrobial COEs.

[7] = Aqueous solubility (further tests); assay type: physicochemical; settings: aqueous medium (not further specified)

| Compound | Concentration needed to change the gel-to-liquid-crystal transition peak (DSC) [1] | MIC in comparison with vancomycin [3] | Reduction of viability of MRSA BAA-40 compared with vancomycin (MRSA BAA-40 [4]) | MIC on MRSA BAA-40 during serial passage (MRSA BAA-40 [5]) | Tendency to cause resistance in the bacteria (MRSA BAA-40 [5]) | Skin structure of infected RHE model after treatment [6] | further results |
| --- | --- | --- | --- | --- | --- | --- | --- |
| C[N+](C)(C)CCCCOc1ccc(/C=C/c2ccc(OCCCC[N+](C)(C)C)cc2)cc1 [COE-D4] | > 32 µg/mL |  |  |  |  |  |  |
| C[N+](C)(C)CCCCCCOc1ccc(/C=C/c2ccc(OCCCCCC[N+](C)(C)C)cc2)cc1 [COE-D6] | 16 µg/mL |  |  |  |  |  |  |
| C[N+](C)(C)CCCCCCCCOc1ccc(/C=C/c2ccc(OCCCCCCCC[N+](C)(C)C)cc2)cc1 [COE-D8] | 8 µg/mL |  |  |  |  |  | MIC [2]: 4 µg/mL |
| CN(C)CC[N+](C)(C)CCCCCCOc1ccc(/C=C/c2ccc(OCCCCCC[N+](C)(C)CCN(C)C)cc2)cc1 [COE-D62N] |  | lower MIC than vancomycin | much faster than that of vancomycin | remained relatively constant | low tendency to cause resistance | intact skin structure | MIC ([3]; Staphylococcus aureus): 1 µg/mL; solubility [7]: > 200 µM |
| CN(C)CC[N+](C)(C)CCCCCCCCOc1ccc(/C=C/c2ccc(OCCCCCCCC[N+](C)(C)CCN(C)C)cc2)cc1 [COE-D82N] |  | lower MIC than vancomycin | much faster than that of vancomycin | remained relatively constant | low tendency to cause resistance | intact skin structure | Time to reduce viability of MRSA close to the minimum (MRSA BAA-40 [4]): ≤ 2 h |
